According to US12371428B2 (Exelixis, Inc., priority 2019, dated 2025):

How the values were obtained:
Assay type in all cases: cell-based
[1] = biological target: Mer (phospho-Mer, MERTK-transfected 293A cells) (Homo sapiens (Human), UniProt Q12866); assay: Mer autophosphorylation ELISA in transient transfected 293A cells (Example H); conditions: cellular activity; Mer autophosphorylation ELISA in transient transfected 293A cells
Outline: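 IC50 from 4-parameter logistic fit of phospho-Mer levels, quantified by ELISA against a phospho-Mer standard in lysates of MERTK-transfected 293A cells. Cells exposed 1 h to 8-point serial dilutions, serum-free, 0.3% DMSO; controls: DMSO (100%) and reference inhibitor (0%).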

[2] = biological target: Met (phospho-Met, HGF-stimulated PC-3 prostate cancer cells) (Homo sapiens (Human), UniProt P08581); assay: Met autophosphorylation ELISA in PC-3 cells (Example F); conditions: cellular activity; Met autophosphorylation ELISA in PC-3 cells; read-out: c-Met IC50
Sequence of Met (phospho-Met, HGF-stimulated PC-3 prostate cancer cells) (P08581 25-1390): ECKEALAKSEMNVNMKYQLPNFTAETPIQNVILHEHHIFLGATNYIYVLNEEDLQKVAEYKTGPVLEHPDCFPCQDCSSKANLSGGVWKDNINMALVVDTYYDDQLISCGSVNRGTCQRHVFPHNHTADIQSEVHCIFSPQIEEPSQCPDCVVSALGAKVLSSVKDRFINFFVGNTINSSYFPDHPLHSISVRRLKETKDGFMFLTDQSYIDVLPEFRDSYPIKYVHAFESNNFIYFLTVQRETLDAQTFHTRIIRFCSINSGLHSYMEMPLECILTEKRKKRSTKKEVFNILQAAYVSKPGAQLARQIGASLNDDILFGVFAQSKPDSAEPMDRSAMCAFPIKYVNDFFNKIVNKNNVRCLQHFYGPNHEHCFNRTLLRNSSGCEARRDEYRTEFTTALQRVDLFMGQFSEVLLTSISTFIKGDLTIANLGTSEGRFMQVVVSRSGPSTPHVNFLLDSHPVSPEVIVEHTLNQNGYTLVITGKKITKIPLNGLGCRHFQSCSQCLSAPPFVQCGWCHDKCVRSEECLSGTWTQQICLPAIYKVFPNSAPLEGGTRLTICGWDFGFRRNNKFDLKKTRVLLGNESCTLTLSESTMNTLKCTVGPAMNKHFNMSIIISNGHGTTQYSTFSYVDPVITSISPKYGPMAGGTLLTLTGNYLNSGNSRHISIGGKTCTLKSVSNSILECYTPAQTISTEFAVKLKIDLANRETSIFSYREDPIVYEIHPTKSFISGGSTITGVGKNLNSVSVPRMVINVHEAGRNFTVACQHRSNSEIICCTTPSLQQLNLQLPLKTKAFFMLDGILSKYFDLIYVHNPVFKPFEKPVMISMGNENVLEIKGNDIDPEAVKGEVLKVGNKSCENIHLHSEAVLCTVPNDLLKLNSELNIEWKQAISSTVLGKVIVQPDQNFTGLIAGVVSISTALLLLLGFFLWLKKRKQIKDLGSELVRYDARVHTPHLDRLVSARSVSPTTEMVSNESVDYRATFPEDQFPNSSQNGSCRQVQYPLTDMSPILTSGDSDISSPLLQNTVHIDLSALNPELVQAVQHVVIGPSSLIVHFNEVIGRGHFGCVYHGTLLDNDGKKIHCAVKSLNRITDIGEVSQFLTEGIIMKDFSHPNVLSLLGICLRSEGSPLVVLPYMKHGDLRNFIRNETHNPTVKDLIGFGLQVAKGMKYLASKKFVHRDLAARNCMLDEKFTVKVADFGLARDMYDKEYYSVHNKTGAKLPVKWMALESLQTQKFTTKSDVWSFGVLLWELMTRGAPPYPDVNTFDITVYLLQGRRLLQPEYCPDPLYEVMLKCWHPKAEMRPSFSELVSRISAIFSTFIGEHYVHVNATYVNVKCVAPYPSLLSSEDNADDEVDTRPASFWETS
Outline: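 PC-3 cells, serum-starved 3 h, were treated with compounds (8-point dose curve, 0.3% DMSO final) for 1 h, then stimulated with 100 ng/mL recombinant human HGF for 10 min. Lysate phospho-Met (panTyr) was quantified by sandwich ELISA; IC50 from 4-parameter logistic fit.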

[3] = biological target: KDR (phospho-KDR, VEGF165-stimulated HUVEC cells) (Homo sapiens (Human), UniProt P35968); assay: KDR autophosphorylation ELISA in HUVEC cells (Example G); conditions: cellular activity; KDR autophosphorylation ELISA in HUVEC cells
Sequence of KDR (phospho-KDR, VEGF165-stimulated HUVEC cells) (P35968 20-1356): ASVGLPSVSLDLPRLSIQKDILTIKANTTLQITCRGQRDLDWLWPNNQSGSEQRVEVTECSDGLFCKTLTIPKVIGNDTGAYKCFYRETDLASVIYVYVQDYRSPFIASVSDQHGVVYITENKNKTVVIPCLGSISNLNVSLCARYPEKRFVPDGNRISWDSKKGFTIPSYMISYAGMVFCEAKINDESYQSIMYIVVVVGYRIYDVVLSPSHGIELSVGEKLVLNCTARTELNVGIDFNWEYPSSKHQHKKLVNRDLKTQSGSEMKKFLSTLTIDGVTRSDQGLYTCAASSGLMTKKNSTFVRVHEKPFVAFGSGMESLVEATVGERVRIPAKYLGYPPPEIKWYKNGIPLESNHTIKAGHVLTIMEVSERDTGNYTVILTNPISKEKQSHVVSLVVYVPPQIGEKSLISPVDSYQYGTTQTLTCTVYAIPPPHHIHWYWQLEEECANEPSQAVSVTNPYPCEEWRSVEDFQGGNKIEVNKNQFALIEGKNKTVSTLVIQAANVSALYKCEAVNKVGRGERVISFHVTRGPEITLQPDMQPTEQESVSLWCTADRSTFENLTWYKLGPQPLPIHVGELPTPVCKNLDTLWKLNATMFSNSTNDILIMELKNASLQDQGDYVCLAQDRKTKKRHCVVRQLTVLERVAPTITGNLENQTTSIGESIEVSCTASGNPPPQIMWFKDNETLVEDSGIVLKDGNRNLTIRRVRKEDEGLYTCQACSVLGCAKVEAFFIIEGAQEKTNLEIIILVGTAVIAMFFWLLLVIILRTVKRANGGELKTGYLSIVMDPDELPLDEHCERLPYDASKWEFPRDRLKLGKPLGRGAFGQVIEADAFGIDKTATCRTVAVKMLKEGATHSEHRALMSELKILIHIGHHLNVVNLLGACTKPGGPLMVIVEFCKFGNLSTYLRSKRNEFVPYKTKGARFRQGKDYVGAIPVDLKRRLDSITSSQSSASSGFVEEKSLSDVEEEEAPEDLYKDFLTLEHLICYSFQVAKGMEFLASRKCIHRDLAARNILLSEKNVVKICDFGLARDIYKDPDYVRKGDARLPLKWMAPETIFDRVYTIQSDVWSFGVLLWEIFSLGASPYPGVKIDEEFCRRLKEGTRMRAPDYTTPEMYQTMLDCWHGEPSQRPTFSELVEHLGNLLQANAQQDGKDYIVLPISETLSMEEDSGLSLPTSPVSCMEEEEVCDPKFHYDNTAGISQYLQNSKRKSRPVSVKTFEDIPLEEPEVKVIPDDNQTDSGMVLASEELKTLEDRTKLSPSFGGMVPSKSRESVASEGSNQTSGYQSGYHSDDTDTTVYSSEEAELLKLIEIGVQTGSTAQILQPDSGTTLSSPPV
Outline: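 First, endothelial cells were cultured a day, then kept without serum for another day. Next came 1 h with serially diluted compound, a brief 5 min VEGF165 stimulus (100 ng/mL), rapid lysis, and ELISA detection of receptor phosphorylation relative to stimulated and non-stimulated controls.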

[4] = biological target: AXL (phospho-AXL, Gas6-stimulated A-172 glioblastoma cells) (Homo sapiens (Human), UniProt P30530); assay: AXL autophosphorylation ELISA in A-172 cells (Example E); conditions: cellular activity; AXL autophosphorylation ELISA in A-172 cells; read-out: Axl IC50
Sequence of AXL (phospho-AXL, Gas6-stimulated A-172 glioblastoma cells) (P30530 26-894): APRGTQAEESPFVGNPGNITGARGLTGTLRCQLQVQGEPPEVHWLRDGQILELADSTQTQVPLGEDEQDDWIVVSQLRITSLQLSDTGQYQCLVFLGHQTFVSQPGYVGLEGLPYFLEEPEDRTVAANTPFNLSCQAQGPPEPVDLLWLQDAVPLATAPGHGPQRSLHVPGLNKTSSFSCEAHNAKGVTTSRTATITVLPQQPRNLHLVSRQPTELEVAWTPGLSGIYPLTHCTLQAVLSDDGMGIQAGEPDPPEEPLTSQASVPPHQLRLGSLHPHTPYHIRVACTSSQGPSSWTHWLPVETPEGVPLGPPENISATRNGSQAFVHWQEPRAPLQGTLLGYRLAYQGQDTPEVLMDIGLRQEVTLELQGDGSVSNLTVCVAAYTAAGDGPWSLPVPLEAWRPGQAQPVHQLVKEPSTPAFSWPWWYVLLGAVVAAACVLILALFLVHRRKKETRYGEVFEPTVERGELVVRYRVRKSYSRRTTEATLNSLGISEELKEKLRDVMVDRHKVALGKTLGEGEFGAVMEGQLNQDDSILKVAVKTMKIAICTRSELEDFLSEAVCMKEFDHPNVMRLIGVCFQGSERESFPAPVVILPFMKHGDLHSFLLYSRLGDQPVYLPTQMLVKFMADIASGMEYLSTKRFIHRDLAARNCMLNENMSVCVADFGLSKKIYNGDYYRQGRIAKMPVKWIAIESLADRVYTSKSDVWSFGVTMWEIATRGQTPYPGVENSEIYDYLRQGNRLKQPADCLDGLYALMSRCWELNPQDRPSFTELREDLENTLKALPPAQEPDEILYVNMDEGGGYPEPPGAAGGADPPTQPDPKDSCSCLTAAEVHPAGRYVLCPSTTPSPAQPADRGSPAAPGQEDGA
Outline: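 Phospho-AXL was measured by ELISA in lysates of Gas6-stimulated A-172 cells, starved 24 h in serum-free medium and exposed 1 h to an 8-point compound dilution at 0.3% DMSO.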

Sequence of Mer (phospho-Mer, MERTK-transfected 293A cells) (Q12866 21-999): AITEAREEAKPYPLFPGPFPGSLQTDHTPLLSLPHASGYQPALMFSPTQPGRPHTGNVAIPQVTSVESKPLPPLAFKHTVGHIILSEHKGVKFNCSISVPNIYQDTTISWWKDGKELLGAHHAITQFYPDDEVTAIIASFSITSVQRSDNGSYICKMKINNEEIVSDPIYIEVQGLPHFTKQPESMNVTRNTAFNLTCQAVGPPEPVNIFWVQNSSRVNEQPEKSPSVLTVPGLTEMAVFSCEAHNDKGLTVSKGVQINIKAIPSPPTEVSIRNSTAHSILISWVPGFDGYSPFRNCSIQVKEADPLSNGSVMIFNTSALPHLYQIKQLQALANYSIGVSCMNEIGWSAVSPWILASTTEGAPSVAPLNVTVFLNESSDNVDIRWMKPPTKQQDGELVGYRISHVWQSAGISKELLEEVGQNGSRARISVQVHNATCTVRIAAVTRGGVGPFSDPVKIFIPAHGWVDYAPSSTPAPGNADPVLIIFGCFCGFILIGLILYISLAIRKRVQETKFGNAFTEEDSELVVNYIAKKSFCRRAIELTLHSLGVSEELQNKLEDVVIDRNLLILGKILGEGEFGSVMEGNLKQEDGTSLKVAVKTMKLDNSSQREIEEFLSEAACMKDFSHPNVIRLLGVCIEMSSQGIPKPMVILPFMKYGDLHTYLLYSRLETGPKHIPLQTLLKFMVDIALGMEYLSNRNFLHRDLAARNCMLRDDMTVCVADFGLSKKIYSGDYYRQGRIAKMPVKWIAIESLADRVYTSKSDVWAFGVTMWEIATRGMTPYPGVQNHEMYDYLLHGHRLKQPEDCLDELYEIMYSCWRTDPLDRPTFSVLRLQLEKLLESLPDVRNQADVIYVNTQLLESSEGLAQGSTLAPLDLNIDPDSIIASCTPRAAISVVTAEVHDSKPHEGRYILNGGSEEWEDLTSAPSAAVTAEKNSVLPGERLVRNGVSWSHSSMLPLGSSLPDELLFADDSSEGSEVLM

| Compound | IC50 [1] | IC50 [2] | IC50 [3] | IC50 [4] |
| --- | --- | --- | --- | --- |
| COc1cnc2c(Oc3ccc(NC(=O)c4cnc(C)c(-c5ccc(F)c(OC)c5)c4O)cc3F)ccnc2c1 [Compound 670, N-[3-fluoro-4-[(7-methoxy-1,5-naphthyridin-4-yl)oxy]phenyl]-5-(4-fluoro-3-methoxyphenyl)-4-hydroxy-6-methylpyridine-3-carboxamide] | < 100 nM | < 100 nM | < 100 nM | < 100 nM |
| COCCOc1cc2nccc(Oc3ccc(NC(=O)c4cn(C)c(C)c(-c5ccc(F)cc5)c4=O)cc3F)c2nc1OC [Compound 486, N-[3-fluoro-4-[[6-methoxy-7-(2-methoxyethoxy)-1,5-naphthyridin-4-yl]oxy]phenyl]-5-(4-fluorophenyl)-1,6-dimethyl-4-oxopyridine-3-carboxamide] | < 100 nM | < 100 nM | < 100 nM | < 100 nM |
| CCOc1nc2c(Oc3ccc(NC(=O)c4c(C)ncc(-c5ccc(F)cc5)c4O)cc3)ccnc2cc1OC [Compound 671, N-[4-[(6-ethoxy-7-methoxy-1,5-naphthyridin-4-yl)oxy]phenyl]-5-(4-fluorophenyl)-4-hydroxy-2-methylpyridine-3-carboxamide] | < 100 nM | < 100 nM | < 100 nM | < 100 nM |
| COc1cc(F)ccc1-c1cnc(C)c(C(=O)Nc2ccc(Oc3ccnc4cc(OC)c(OC)nc34)c(F)c2)c1O [Compound 792, N-[4-[(6,7-dimethoxy-1,5-naphthyridin-4-yl)oxy]-3-fluorophenyl]-5-(4-fluoro-2-methoxyphenyl)-4-hydroxy-2-methylpyridine-3-carboxamide] | < 100 nM | < 100 nM | < 100 nM | < 100 nM |
| COc1cc2nccc(Oc3ccc(NC(=O)c4nnc(C)c(-c5ccc(F)cc5)c4OC)cc3F)c2cc1OC [Compound 571, N-[4-(6,7-Dimethoxyquinolin-4-yl)oxy-3-fluorophenyl]-5-(4-fluorophenyl)-4-methoxy-6-methylpyridazine-3-carboxamide] | < 100 nM | < 100 nM | < 100 nM | < 100 nM |
| COc1cnc2c(Oc3ccc(NC(=O)c4c(C)n(C)c(C)c(-c5ccc(F)cc5C)c4=O)cc3F)ccnc2c1 [Compound 771, N-[3-fluoro-4-[(7-methoxy-1,5-naphthyridin-4-yl)oxy]phenyl]-5-(4-fluoro-2-methylphenyl)-1,2,6-trimethyl-4-oxopyridine-3-carboxamide] | < 100 nM | < 100 nM | > 300 nM | < 100 nM |
| COc1cnc2c(Oc3ccc(NC(=O)c4cnc(C)c(-c5ccc(OC)c(F)c5)c4O)cc3F)ccnc2c1 [Compound 698, N-[3-fluoro-4-[(7-methoxy-1,5-naphthyridin-4-yl)oxy]phenyl]-5-(3-fluoro-4-methoxyphenyl)-4-hydroxy-6-methylpyridine-3-carboxamide] | < 100 nM | > 300 nM | < 100 nM | > 300 nM |
| COc1cnc2c(Oc3ccc(NC(=O)c4c(C)c(C)c(C)n(-c5ccc(F)cc5)c4=O)cc3)ccnc2c1 [Compound 317, 1-(4-Fluorophenyl)-N-[4-[(7-methoxy-1,5-naphthyridin-4-yl)oxy]phenyl]-4,5,6-trimethyl-2-oxopyridine-3-carboxamide] | < 100 nM | < 100 nM | < 100 nM | < 100 nM |
| C=Cc1c(C)c(C(=O)Nc2ccc(Oc3ccnc4cc(OC)cnc34)c(F)c2)c(=O)n(-c2ccc(F)cc2)c1C [Compound 329, 5-ethenyl-N-[3-fluoro-4-[(7-methoxy-1,5-naphthyridin-4-yl)oxy]phenyl]-1-(4-fluorophenyl)-4,6-dimethyl-2-oxopyridine-3-carboxamide] | < 100 nM | < 100 nM | 100 to 300 nM | < 100 nM |
| COc1cc2c(Oc3ccc(NC(=O)c4cnc(C)n(-c5ccc(F)cc5)c4=O)cc3F)ccnc2cn1 [Compound 499, N-[3-fluoro-4-[(6-methoxy-1,7-naphthyridin-4-yl)oxy]phenyl]-1-(4-fluorophenyl)-2-methyl-6-oxopyrimidine-5-carboxamide] | < 100 nM | < 100 nM | 100 to 300 nM | < 100 nM |
| COc1nc2c(Oc3ccc(NC(=O)c4n[nH]c(C)c(-c5ccc(F)cc5C)c4=O)cc3F)ccnc2cc1C [Compound 473, N-[3-fluoro-4-[(6-methoxy-7-methyl-1,5-naphthyridin-4-yl)oxy]phenyl]-5-(4-fluoro-2-methylphenyl)-6-methyl-4-oxo-1H-pyridazine-3-carboxamide] | < 100 nM | > 300 nM | > 300 nM | < 100 nM |
| COc1cc2nccc(Oc3ccc(NC(=O)c4cn5c(c(-c6ccc(F)cc6C)c4=O)COCC5)cc3F)c2nc1OC [Compound 766, N-[4-[(6,7-dimethoxy-1,5-naphthyridin-4-yl)oxy]-3-fluorophenyl]-9-(4-fluoro-2-methylphenyl)-8-oxo-3,4-dihydro-1H-pyrido[2,1-c][1,4]oxazine-7-carboxamide] | < 100 nM | < 100 nM | > 300 nM | < 100 nM |
| C=C(C)c1cnc2c(Oc3ccc(NC(=O)c4c(C)nc(C)n(-c5ccc(F)cc5)c4=O)cc3F)ccnc2c1 [Compound 466, 1-(4-fluorophenyl)-N-[3-fluoro-4-[(7-prop-1-en-2-yl-1,5-naphthyridin-4-yl)oxy]phenyl]-2,4-dimethyl-6-oxopyrimidine-5-carboxamide] | < 100 nM | < 100 nM | < 100 nM | < 100 nM |
| COc1cnc2c(Oc3ccc(NC(=O)c4c(C)nc(C)c(-c5ccc(F)cc5OC)c4O)cc3F)ccnc2c1 [Compound 686, N-[3-fluoro-4-[(7-methoxy-1,5-naphthyridin-4-yl)oxy]phenyl]-5-(4-fluoro-2-methoxyphenyl)-4-hydroxy-2,6-dimethylpyridine-3-carboxamide] | < 100 nM | < 100 nM | < 100 nM | < 100 nM |
| COc1cc2nccc(Oc3ccc(NC(=O)c4nn(C(F)F)c(C)c(-c5ccc(F)cc5)c4=O)cc3F)c2nc1OC [Compound 721, 1-(difluoromethyl)-N-[4-[(6,7-dimethoxy-1,5-naphthyridin-4-yl)oxy]-3-fluorophenyl]-5-(4-fluorophenyl)-6-methyl-4-oxopyridazine-3-carboxamide] | < 100 nM | < 100 nM | 100 to 300 nM | < 100 nM |
| COc1cnc2c(Oc3ccc(NC(=O)c4c(C)nc(C)c(-c5ccc(F)c(C)c5)c4O)cc3F)ccnc2c1 [Compound 689, N-[3-fluoro-4-[(7-methoxy-1,5-naphthyridin-4-yl)oxy]phenyl]-5-(4-fluoro-3-methylphenyl)-4-hydroxy-2,6-dimethylpyridine-3-carboxamide] | < 100 nM | < 100 nM | < 100 nM | < 100 nM |
| COc1ccc(-c2c(C)nc(C)c(C(=O)Nc3ccc(Oc4ccnc5cc(OC)cnc45)c(F)c3)c2O)c(F)c1 [Compound 691, N-[3-fluoro-4-[(7-methoxy-1,5-naphthyridin-4-yl)oxy]phenyl]-5-(2-fluoro-4-methoxyphenyl)-4-hydroxy-2,6-dimethylpyridine-3-carboxamide] | < 100 nM | < 100 nM | < 100 nM | 100 to 300 nM |
| CNc1c(C(=O)Nc2ccc(Oc3ccnc4cc(OC)c(OC)nc34)c(F)c2)c(=O)c(-c2ccc(F)cc2)c(C)n1C [Compound 649, N-[4-[(6,7-dimethoxy-1,5-naphthyridin-4-yl)oxy]-3-fluorophenyl]-5-(4-fluorophenyl)-1,6-dimethyl-2-(methylamino)-4-oxopyridine-3-carboxamide] | < 100 nM | < 100 nM | > 300 nM | 100 to 300 nM |
| COc1cnc2c(Oc3ccc(NC(=O)c4c(C)c(C)nn(-c5ccc(F)cc5)c4=O)cc3)ccnc2c1 [Compound 733, 2-(4-fluorophenyl)-N-[4-[(7-methoxy-1,5-naphthyridin-4-yl)oxy]phenyl]-5,6-dimethyl-3-oxopyridazine-4-carboxamide] | < 100 nM | < 100 nM | > 300 nM | > 300 nM |
| COc1cc2nccc(Oc3ccc(NC(=O)c4c(C)c(C(N)=O)c(C)n(-c5ccc(F)cc5)c4=O)cc3F)c2nc1OC [Compound 318, 5-N-[4-[(6,7-Dimethoxy-1,5-naphthyridin-4-yl)oxy]-3-fluorophenyl]-1-(4-fluorophenyl)-2,4-dimethyl-6-oxopyridine-3,5-dicarboxamide] | < 100 nM | < 100 nM | > 300 nM | < 100 nM |
